According to ChEMBL document CHEMBL1158786, “Triterpenoid saponin anthranilates from Albizia grandibracteata leaves ingested by primates in Uganda” (J Nat Prod, 2005):

Experiments:
[1] = system: KB; assay: Cytotoxicity against human KB cells; assay type: functional, cell-based
[2] = system: MCF7; assay: Cytotoxicity against human MCF7 cells; assay type: functional, cell-based

CC(=O)N[C@H]1[C@H](O[C@H]2CC[C@]3(C)[C@H]4CC=C5[C@@H]6CC(C)(C)[C@@H](OC(=O)c7ccccc7N)C[C@]6(C(=O)O[C@@H]6O[C@H](CO)[C@@H](O)[C@H](O)[C@H]6O[C@@H]6O[C@@H](C)[C@H](O[C@@H]7OC[C@@H](O)[C@H](O)[C@H]7O)[C@@H](O)[C@H]6O)[C@H](O)C[C@@]5(C)[C@]4(C)CC[C@H]3C2(C)C)O[C@H](CO[C@@H]2O[C@H](C)[C@H](O)[C@H](O)[C@H]2O[C@@H]2OC[C@@H](O)[C@H](O)[C@H]2O)[C@@H](O)[C@@H]1O [GRANDIBRACTEOSIDE A]
IC50 [1]: 1300 nM
IC50 [2]: 400 nM

COc1cccc2c1C(=O)c1c(O)c3c(c(O)c1C2=O)C[C@@](O)(C(=O)CO)C[C@@H]3O[C@H]1C[C@H](N)[C@H](O)[C@H](C)O1 [DOXORUBICIN]
IC50 [1]: 100 nM
IC50 [2]: 100 nM

CC(=O)N[C@H]1[C@H](O[C@H]2CC[C@]3(C)[C@H]4CC=C5[C@@H]6CC(C)(C)[C@@H](OC(=O)c7ccccc7N)C[C@]6(C(=O)O[C@@H]6O[C@H](CO)[C@@H](O)[C@H](O)[C@H]6O[C@@H]6O[C@@H](C)[C@H](O[C@@H]7O[C@@H](CO)[C@H](O)[C@H]7O)[C@@H](O[C@@H]7O[C@H](CO)[C@@H](O)[C@H](O)[C@H]7O)[C@H]6O)[C@H](O)C[C@@]5(C)[C@]4(C)CC[C@H]3C2(C)C)O[C@H](CO[C@@H]2O[C@H](C)[C@H](O)[C@H](O)[C@H]2O[C@@H]2OC[C@@H](O)[C@H](O)[C@H]2O)[C@@H](O)[C@@H]1O [GRANDIBRACTEOSIDE C]
IC50 [1]: 2300 nM
IC50 [2]: 1700 nM

CC(=O)N[C@H]1[C@H](O[C@H]2CC[C@]3(C)[C@H]4CC=C5[C@@H]6CC(C)(C)[C@@H](OC(=O)c7ccccc7N)C[C@]6(C(=O)O[C@@H]6O[C@H](CO[C@@H]7O[C@H](CO)[C@@H](O)[C@H](O)[C@H]7O)[C@@H](O)[C@H](O)[C@H]6O[C@@H]6O[C@@H](C)[C@H](O[C@@H]7OC[C@@H](O)[C@H](O)[C@H]7O)[C@@H](O)[C@H]6O)[C@H](O)C[C@@]5(C)[C@]4(C)CC[C@H]3C2(C)C)O[C@H](CO[C@@H]2O[C@H](C)[C@H](O)[C@H](O)[C@H]2O[C@@H]2OC[C@@H](O)[C@H](O)[C@H]2O)[C@@H](O)[C@@H]1O [GRANDIBRACTEOSIDE B]
IC50 [1]: 2300 nM
IC50 [2]: 1700 nM
